# Source: PubChem BioAssay (NCI)
#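 These data come from cells grown in 96-well plates and exposed to compound for 48 hours at five concentrations. Abbreviation: GI50, concentration required for 50% inhibition of growth. At the TGI there is no net growth.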
# Assays:
# Assay in all cases: NCI-60 cell line screen, 48 h
# [1] = system: SK-MEL-28 melanoma
# [2] = system: HOP-92 NSCLC
# [3] = system: MALME-3M melanoma
# [4] = system: HS 578T breast
# [5] = system: DU-145 prostate
# [6] = system: OVCAR-3 ovarian
# [7] = system: A549 NSCLC
# [8] = system: HCT-15 colon
# [9] = system: HCT-116 colon
# [10] = system: MDA-MB-231 breast
# [11] = system: NCI-H226 lung
# [12] = system: MOLT-4 leukemia
# [13] = system: IGROV1 ovarian
# [14] = system: MDA-N
# [15] = system: SK-OV-3 ovarian
# [16] = system: SK-MEL-2 melanoma
# [17] = system: UACC-62 melanoma
# [18] = system: SK-MEL-5 melanoma
# [19] = system: SW-620 colon
# [20] = system: A498 renal
# [21] = system: SF-539 CNS
# [22] = system: RPMI-8226 leukemia
# [23] = system: UACC-257 melanoma
# [24] = system: PC-3 prostate
# [25] = system: MCF7 breast
# [26] = system: K-562 leukemia
# [27] = system: ACHN renal
# [28] = system: LOX IMVI melanoma
# [29] = system: OVCAR-5 ovarian
# [30] = system: CAKI-1 renal
# [31] = system: SN12C renal
# [32] = system: SNB-19 CNS
# [33] = system: OVCAR-8 ovarian
# [34] = system: NCI-H522 lung
# [35] = system: OVCAR-4 ovarian
# [36] = system: CCRF-CEM leukemia
# [37] = system: NCI-H23 lung
# [38] = system: NCI/ADR-RES ovarian
# [39] = system: 786-0 renal
# [40] = system: M14 melanoma
# [41] = system: COLO 205 colon
# [42] = system: T-47D breast
# [43] = system: HL-60(TB) leukemia
# [44] = system: UO-31 renal
# [45] = system: HCC-2998 colon
# [46] = system: HOP-62 NSCLC
# [47] = system: SF-295 CNS
# [48] = system: NCI-H460 lung
# [49] = system: SR leukemia
# [50] = system: TK-10 renal
# [51] = system: HT29 colon
# [52] = system: SNB-75 CNS
# [53] = system: BT-549 breast
# [54] = system: KM12 colon
# [55] = system: EKVX NSCLC
# [56] = system: SF-268 CNS
# [57] = system: MDA-MB-435
# [58] = system: RXF 393 renal
# [59] = system: U251 CNS
# [60] = system: KM20L2 colon
# [61] = system: DLD-1 colon
# [62] = system: DMS 273 small cell lung
smiles,measurement,setting,value
COc1ccc2nc3cc(Cl)ccc3c(NCCCCCC(=O)NC(COc3ccc4ccc5cccnc5c4n3)COc3ccc4ccc5cccnc5c4n3)c2c1,TGI,[1],49 µM
same,TGI,[2],44.1 µM
same,TGI,[3],> 100 µM
same,TGI,[4],73.9 µM
same,TGI,[5],23.6 µM
same,TGI,[6],> 100 µM
same,TGI,[7],50.1 µM
same,TGI,[8],> 100 µM
same,TGI,[9],23.5 µM
same,TGI,[10],36.2 µM
same,TGI,[11],35.1 µM
same,TGI,[12],12.7 µM
same,TGI,[13],37.4 µM
same,TGI,[14],45.7 µM
same,TGI,[15],> 100 µM
same,TGI,[16],45.1 µM
same,TGI,[17],56.4 µM
same,TGI,[18],30.4 µM
same,TGI,[19],33 µM
same,TGI,[20],31 µM
same,TGI,[21],30.6 µM
same,TGI,[22],17.3 µM
same,TGI,[23],42.8 µM
same,TGI,[24],28.4 µM
same,TGI,[25],15.1 µM
same,TGI,[26],26.3 µM
same,TGI,[27],28.9 µM
same,TGI,[28],> 100 µM
same,TGI,[29],47.9 µM
same,TGI,[30],95.5 µM
same,TGI,[31],31.6 µM
same,TGI,[32],> 100 µM
same,TGI,[33],> 100 µM
same,TGI,[34],81.1 µM
same,TGI,[35],99.8 µM
same,TGI,[36],10.5 µM
same,TGI,[37],48.6 µM
same,TGI,[38],73.7 µM
same,TGI,[39],28.8 µM
same,TGI,[40],57.7 µM
same,TGI,[41],32.2 µM
same,TGI,[42],40.1 µM
same,TGI,[43],27.2 µM
same,TGI,[44],10.7 µM
same,TGI,[45],28.1 µM
same,TGI,[46],> 100 µM
same,TGI,[47],> 100 µM
same,TGI,[48],19.1 µM
same,TGI,[49],12.3 µM
same,TGI,[50],32 µM
same,TGI,[51],> 100 µM
same,TGI,[52],35.4 µM
same,TGI,[53],3.55 µM
same,TGI,[54],85.5 µM
same,TGI,[55],58 µM
same,TGI,[56],34.9 µM
same,TGI,[57],> 100 µM
same,TGI,[58],39.3 µM
same,TGI,[59],26.7 µM
CC1CCc2c(sc3ncnc(N/N=C/c4ccc(Cl)cc4)c23)C1 (stereo unspecified),TGI,[1],> 100 µM
same,TGI,[60],62.7 µM
same,TGI,[3],> 100 µM
same,TGI,[6],> 100 µM
same,TGI,[7],> 100 µM
same,TGI,[8],> 100 µM
same,TGI,[9],> 100 µM
same,TGI,[11],44.4 µM
same,TGI,[12],57.3 µM
same,TGI,[13],> 100 µM
same,TGI,[15],> 100 µM
same,TGI,[16],> 100 µM
same,TGI,[17],> 100 µM
same,TGI,[18],37.2 µM
same,TGI,[19],> 100 µM
same,TGI,[22],> 100 µM
same,TGI,[23],70.3 µM
same,TGI,[26],48.1 µM
same,TGI,[27],94.9 µM
same,TGI,[28],70.6 µM
same,TGI,[29],> 100 µM
same,TGI,[30],89.5 µM
same,TGI,[31],> 100 µM
same,TGI,[32],93 µM
same,TGI,[33],> 100 µM
same,TGI,[34],65.1 µM
same,TGI,[37],> 100 µM
same,TGI,[39],> 100 µM
same,TGI,[61],> 100 µM
same,TGI,[40],68.2 µM
same,TGI,[41],> 100 µM
same,TGI,[43],43.5 µM
same,TGI,[44],29.7 µM
same,TGI,[45],> 100 µM
same,TGI,[46],> 100 µM
same,TGI,[47],75.5 µM
same,TGI,[48],> 100 µM
same,TGI,[49],55 µM
same,TGI,[50],> 100 µM
same,TGI,[51],> 100 µM
same,TGI,[52],> 100 µM
same,TGI,[55],81.6 µM
same,TGI,[56],> 100 µM
same,TGI,[62],> 100 µM
same,TGI,[58],91.2 µM
same,TGI,[59],> 100 µM
Nc1nc(N)c2c(n1)CCC(S(=O)(=O)c1ccc3ccccc3c1)C2 (stereo unspecified),TGI,[1],> 100 µM
same,TGI,[2],> 72.2 µM
same,TGI,[3],42.7 µM
same,GI50,[4],5.05 µM
same,TGI,[4],77.6 µM
same,TGI,[5],> 100 µM
same,TGI,[6],> 82.9 µM
same,TGI,[7],> 100 µM
same,TGI,[8],> 100 µM
same,TGI,[9],> 100 µM
same,TGI,[10],> 60.5 µM
same,TGI,[11],> 100 µM
same,TGI,[12],27.2 µM
same,GI50,[13],1.94 µM
same,TGI,[13],> 100 µM
same,TGI,[14],> 100 µM
same,TGI,[15],> 100 µM
same,GI50,[16],9.79 µM
same,TGI,[16],> 100 µM
same,GI50,[17],0.678 µM
same,TGI,[17],> 100 µM
same,TGI,[18],19.2 µM
same,TGI,[19],> 100 µM
same,TGI,[20],40 µM
same,TGI,[21],> 100 µM
same,TGI,[22],> 84.4 µM
same,TGI,[23],> 100 µM
same,TGI,[24],> 100 µM
same,TGI,[25],> 100 µM
same,GI50,[26],0.315 µM
same,TGI,[26],63.6 µM
same,TGI,[27],> 100 µM
same,TGI,[28],> 100 µM
same,TGI,[29],> 100 µM
same,TGI,[30],> 100 µM
same,TGI,[31],> 100 µM
same,TGI,[32],> 85.2 µM
same,TGI,[33],> 100 µM
same,GI50,[34],2.94 µM
same,TGI,[34],34.5 µM
same,GI50,[35],4.31 µM
same,TGI,[35],> 100 µM
same,TGI,[36],> 100 µM
same,TGI,[37],> 100 µM
same,TGI,[38],> 100 µM
same,TGI,[39],> 100 µM
same,TGI,[40],61 µM
same,TGI,[41],34.5 µM
same,TGI,[42],> 100 µM
same,TGI,[43],23.6 µM
same,TGI,[44],> 75.3 µM
same,TGI,[45],26.7 µM
same,TGI,[46],> 100 µM
same,TGI,[47],> 100 µM
same,TGI,[48],> 67 µM
same,TGI,[49],17.8 µM
same,TGI,[50],51.4 µM
same,TGI,[51],> 51.2 µM
same,GI50,[52],12.2 µM
same,TGI,[52],> 100 µM
same,TGI,[53],> 100 µM
same,TGI,[54],> 100 µM
same,TGI,[55],> 100 µM
same,TGI,[56],> 100 µM
same,TGI,[57],> 100 µM
same,GI50,[58],2.53 µM
same,TGI,[58],57.8 µM
same,TGI,[59],> 100 µM
COC(=O)C1Cc2cc3c(cc2C1)CCC3,TGI,[1],> 100 µM
same,TGI,[2],> 100 µM
same,TGI,[3],> 100 µM
same,TGI,[4],> 100 µM
same,TGI,[5],> 100 µM
same,TGI,[6],> 100 µM
same,TGI,[7],> 100 µM
same,TGI,[8],> 100 µM
same,TGI,[9],> 100 µM
same,TGI,[10],> 100 µM
same,TGI,[11],> 100 µM
same,TGI,[12],> 100 µM
same,TGI,[13],> 100 µM
same,TGI,[14],> 100 µM
same,TGI,[15],> 100 µM
same,TGI,[16],> 100 µM
same,TGI,[17],> 100 µM
same,TGI,[18],> 100 µM
same,TGI,[19],> 100 µM
same,TGI,[20],> 100 µM
same,TGI,[21],> 100 µM
same,TGI,[22],> 100 µM
same,TGI,[23],> 100 µM
same,TGI,[24],> 100 µM
same,TGI,[25],> 100 µM
same,TGI,[26],> 100 µM
same,TGI,[27],> 100 µM
same,TGI,[28],> 100 µM
same,TGI,[29],> 100 µM
same,TGI,[30],> 100 µM
same,TGI,[31],> 100 µM
same,TGI,[32],> 100 µM
same,TGI,[33],> 100 µM
same,TGI,[35],> 100 µM
same,TGI,[36],> 100 µM
same,TGI,[37],> 100 µM
same,TGI,[38],> 100 µM
same,TGI,[39],> 100 µM
same,TGI,[40],> 100 µM
same,TGI,[41],> 100 µM
same,TGI,[42],> 100 µM
same,TGI,[43],> 100 µM
same,TGI,[44],> 100 µM
same,TGI,[45],> 100 µM
same,TGI,[46],> 100 µM
same,TGI,[47],> 100 µM
same,TGI,[48],> 100 µM
same,TGI,[49],> 100 µM
same,TGI,[50],> 100 µM
same,TGI,[51],> 100 µM
same,TGI,[52],> 100 µM
same,TGI,[53],> 100 µM
same,TGI,[54],> 100 µM
same,TGI,[55],> 100 µM
same,TGI,[56],> 100 µM
same,TGI,[57],> 100 µM
same,TGI,[58],> 100 µM
same,TGI,[59],> 100 µM
